What was measured:
MATIN [1] = test: Pre-emergence herbicidal action against MATIN; format: in vivo, Matricaria inodora; settings: for pest or weed control at 20 g/ha / pest or weed control at 80 g/ha: Tripleurospermum inodorum, 504 h
Summary of the method: (§1)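 Pre-emergence soil-surface spray of formulated compound (WP or EC; 600 to 800 l/ha; 0.2% wetting agent) over seeds sown in sandy loam. After 3 weeks under greenhouse conditions, damage is estimated visually in percent against untreated plants.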

POLCO = test: Pre-emergence herbicidal action against POLCO; format: in vivo, Polygonum convolvulus; settings: for pest or weed control at 80 g/ha: Fallopia convolvulus, 504 h
Text: Seeds of monocotyledonous and dicotyledonous weed plants and crop plants are laid out in sandy loam soil in wood-fiber pots and covered with soil. The compounds of the invention, formulated in the form of wettable powders (WP) or as emulsion concentrates (EC), are then applied to the surface of the covering soil in the form of an aqueous suspension or emulsion at a water application rate equivalent to 600 to 800 l/ha, with addition of 0.2% wetting agent. After the treatment, the pots are placed in a greenhouse and kept under good growth conditions for the trial plants. The damage to the test plants is scored visually after a test period of 3 weeks by comparison with untreated controls (herbicidal activity in percent (%): 100% activity=the plants have died, 0% activity=like control plants). […] The tables below illustrate, in an illustrative manner, the post-emergence herbicidal action of the compounds of the invention, the herbicidal activity being stated in percent.

ABUTH [2] = test: Post-emergence herbicidal action against ABUTH; format: in vivo, Abutilon theophrasti; settings: visual assessment about 3 weeks after treatment vs untreated controls; for pest or weed control at 5 g/ha / pest or weed control at 20 g/ha: Abutilon theophrasti, 504 h
Summary of the method: (§2)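 Greenhouse plants in sandy loam were sprayed at the one-leaf stage, 2 to 3 weeks after sowing, with WP or EC formulations as aqueous suspension or emulsion (600 to 800 l/ha water, 0.2% wetting agent). Visual damage was scored about 3 weeks later versus untreated controls, 0% = like control, 100% = dead.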

ECHCG [3] = test: Pre-emergence herbicidal action against ECHCG; format: in vivo, Echinochloa crus-galli; settings: 80 g/ha
Summary of the method: as §1

ECHCG [4] = test: Post-emergence herbicidal action against ECHCG; format: in vivo, Echinochloa crus-galli
Summary of the method: as §2

AMARE [5] = test: Pre-emergence herbicidal action against AMARE; format: in vivo, Amaranthus retroflexus
Summary of the method: as §1

AMARE [6] = test: Post-emergence herbicidal action against AMARE; format: in vivo, Amaranthus retroflexus; settings: 20 g/ha, visual assessment about 3 weeks after treatment, 100% = plants have died, 0% = like control plants; for pest or weed control at 20 g/ha: Amaranthus retroflexus, 504 h
Summary of the method: as §2

VIOTR [7] = test: Pre-emergence herbicidal action against VIOTR; format: in vivo, Viola tricolor
Summary of the method: as §1

ALOMY [8] = test: Pre-emergence herbicidal action against ALOMY; format: in vivo, Alopecurus myosuroides; settings: 80 g/ha, pre-emergence, scored visually after 3 weeks vs untreated controls (100% = plants have died, 0% = like control plants); for pest or weed control at 80 g/ha: Alopecurus myosuroides, 504 h
Summary of the method: as §1

ABUTH [9] = test: Pre-emergence herbicidal action against ABUTH; format: in vivo, Abutilon theophrasti; settings: for Pre-emergence action against ABUTH (herbicidal activity) / pest or weed control at 80 g/ha: 80 g/ha, scored visually after 3 weeks vs untreated controls (100% = plants have died, 0% = like control plants); for Pre-emergence action against ABUTH (herbicidal activity in percent): dosage 20 g/ha, scored visually after 3 weeks vs untreated controls, 100% = plants have died, 0% = like control plants; for pest or weed control at 80 g/ha: Abutilon theophrasti, 504 h
Summary of the method: as §1

SETVI [10] = test: Pre-emergence herbicidal action against SETVI; format: in vivo, Setaria viridis; settings: for pest or weed control at 80 g/ha: Setaria viridis, 504 h
Summary of the method: as §1

AVEFA = test: Pre-emergence herbicidal action against AVEFA; format: in vivo, Avena fatua; settings: 80 g/ha, pre-emergence
Summary of the method: as §1

VERPE [11] = test: Pre-emergence herbicidal action against VERPE; format: in vivo, Veronica persica; settings: dosage 80 g/ha
Summary of the method: as §1

DIGSA [12] = test: Pre-emergence herbicidal action against DIGSA; format: in vivo, Digitaria sanguinalis
Summary of the method: as §1

MATIN [13] = test: Post-emergence herbicidal action against MATIN; format: in vivo, Matricaria inodora; settings: dosage 20 g/ha
Summary of the method: as §2

VIOTR [14] = test: Post-emergence herbicidal action against VIOTR; format: in vivo, Viola tricolor; settings: 20 g/ha; for pest or weed control at 20 g/ha: Viola tricolor, 504 h
Summary of the method: as §2

PHBPU = test: Post-emergence herbicidal action against PHBPU; format: in vivo, Pharbitis purpurea
Summary of the method: as §2

SETVI [15] = test: Post-emergence herbicidal action against SETVI; format: in vivo, Setaria viridis; settings: dosage 20 g/ha
Summary of the method: as §2

VERPE [16] = test: Post-emergence herbicidal action against VERPE; format: in vivo, Veronica persica; settings: 20 g/ha; for pest or weed control at 20 g/ha: Veronica persica, 504 h
Summary of the method: as §2

ALOMY [17] = test: Post-emergence herbicidal action against ALOMY; format: in vivo, Alopecurus myosuroides; settings: dosage 20 g/ha, visual assessment about 3 weeks after treatment vs untreated controls; for pest or weed control at 20 g/ha: Alopecurus myosuroides, 504 h
Summary of the method: as §2

DIGSA [18] = test: Post-emergence herbicidal action against DIGSA; format: in vivo, Digitaria sanguinalis; settings: 20 g/ha
Summary of the method: as §2

[19] = 20 g/ha, scored visually after 3 weeks vs untreated controls, 100% = plants have died, 0% = like control plants
[20] = 80 g/ha, scored visually after 3 weeks vs untreated controls (100% = plants have died, 0% = like control plants)
[21] = Amaranthus retroflexus, 504 h, 80 g/ha, scored visually after 3 weeks vs untreated controls, 100% = plants have died, 0% = like control plants

| SMILES | Pre-emergence action against MATIN in % (MATIN [1]; dosage 80 g/ha) | Pre-emergence action against POLCO in % (POLCO; dosage 80 g/ha) | Post-emergence action against ABUTH in % (ABUTH [2]; dosage 5 g/ha) | Post-emergence action against ABUTH in % (ABUTH [2]; dosage 20 g/ha) | Pre-emergence action against ECHCG in % (ECHCG [3]) | Post-emergence action against ECHCG in % (ECHCG [4]; dosage 20 g/ha) | Pre-emergence action against AMARE in % (AMARE [5]; [19]) | Pre-emergence action against AMARE in % (AMARE [5]; [20]) | Post-emergence action at 20 g/ha against AMARE in % (AMARE [6]) | Pre-emergence action against VIOTR in % (VIOTR [7]; dosage 80 g/ha) | Pre-emergence action against ALOMY (herbicidal activity) (ALOMY [8]) | Pre-emergence action against ABUTH (herbicidal activity) (ABUTH [9]) | Pre-emergence action against ABUTH (herbicidal activity in percent) (ABUTH [9]) | Pre-emergence action against SETVI in % (SETVI [10]; dosage 80 g/ha) | Pre-emergence action against VERPE in % (VERPE [11]) | Pre-emergence action against DIGSA in % (DIGSA [12]; dosage 20 g/ha) | Pre-emergence action against DIGSA in % (DIGSA [12]; dosage 80 g/ha) | Pre-emergence action against MATIN in % (MATIN [1]; dosage 20 g/ha) | Post-emergence action against VIOTR in % (VIOTR [14]) | Pre-emergence action against VIOTR in % (VIOTR [7]; dosage 20 g/ha) | also measured |
| --- | --- | --- | --- | --- | --- | --- | --- | --- | --- | --- | --- | --- | --- | --- | --- | --- | --- | --- | --- | --- | --- |
| CCNC(=O)c1c(C(F)(F)F)ccc(C(=O)Nc2nnc(C)o2)c1CC [Example 6-211] | 90% | 90% | 80% | 90% | 100% | 90% | 100% | 100% | 90% | 80% | 90% | 100% | 90% | 100% | 80% |  |  |  |  |  | Pre-emergence action against AVEFA in % (AVEFA): 80% |
| CCn1nnnc1NC(=O)c1ccc(C(F)F)c(C(=O)NC)c1OC [Example 2-72] | 100% | 80% | 80% | 80% | 100% | 80% | 100% | 100% |  | 100% | 80% | 100% | 100% | 100% | 90% | 100% | 100% | 100% | 80% | 100% | Pre-emergence action against POLCO in % (POLCO; dosage 20 g/ha): 80%; Post-emergence action against MATIN in % (MATIN [13]): 80%; Post-emergence action against PHBPU in % (PHBPU; dosage 20 g/ha): 80%; Post-emergence action against ECHCG in % (ECHCG [4]; dosage 5 g/ha): 80%; Post-emergence action against SETVI in % (SETVI [15]): 80%; Post-emergence action against VERPE in % (VERPE [16]): 80% |
| CCNC(=O)c1c(OC)ccc(C(=O)Nc2nnnn2C)c1Cl [Example 1-355] |  |  |  |  |  |  |  |  |  |  |  |  |  |  |  |  |  |  |  |  | pest or weed control at 20 g/ha (ALOMY [17]): 80%; pest or weed control at 20 g/ha (MATIN [1]; dosage 20 g/ha): 80%; pest or weed control at 80 g/ha (MATIN [1]; dosage 80 g/ha): 100%; pest or weed control at 80 g/ha (POLCO; dosage 80 g/ha): 80%; pest or weed control at 5 g/ha (ABUTH [2]; dosage 5 g/ha): 80%; pest or weed control at 20 g/ha (ABUTH [2]; dosage 20 g/ha): 100%; pest or weed control at 20 g/ha (VIOTR [14]): 100%; pest or weed control at 20 g/ha (PHBPU; Ipomoea purpurea, 504 h, dosage 20 g/ha): 80%; pest or weed control at 20 g/ha (ECHCG [4]; Echinochloa crus-galli, 504 h, dosage 20 g/ha): 90%; pest or weed control at 20 g/ha (AMARE [5]; Amaranthus retroflexus, 504 h, 20 g/ha, scored visually after 3 weeks vs untreated controls, 100% = plants have died, 0% = like control plants): 100%; pest or weed control at 80 g/ha (AMARE [5]; [21]): 100%; pest or weed control at 20 g/ha (AMARE [6]): 100%; pest or weed control at 80 g/ha (VIOTR [7]; Viola tricolor, 504 h, dosage 80 g/ha): 100%; pest or weed control at 80 g/ha (ALOMY [8]): 90%; pest or weed control at 20 g/ha (VERPE [16]): 90%; pest or weed control at 80 g/ha (ABUTH [9]): 100%; pest or weed control at 80 g/ha (SETVI [10]; dosage 80 g/ha): 90%; pest or weed control at 80 g/ha (VERPE [11]; Veronica persica, 504 h): 100% |
| CNC(=O)c1c(OC)ccc(C(=O)Nc2nnnn2C)c1Cl [Example 1-354] |  |  |  |  |  |  |  |  |  |  |  |  |  |  |  |  |  |  |  |  | pest or weed control at 20 g/ha (ALOMY [17]): 80%; pest or weed control at 20 g/ha (MATIN [1]; dosage 20 g/ha): 80%; pest or weed control at 80 g/ha (MATIN [1]; dosage 80 g/ha): 80%; pest or weed control at 80 g/ha (POLCO; dosage 80 g/ha): 80%; pest or weed control at 5 g/ha (ABUTH [2]; dosage 5 g/ha): 90%; pest or weed control at 20 g/ha (ABUTH [2]; dosage 20 g/ha): 100%; pest or weed control at 20 g/ha (VIOTR [14]): 90%; pest or weed control at 80 g/ha (AMARE [5]; [21]): 100%; pest or weed control at 20 g/ha (AMARE [6]): 100%; pest or weed control at 20 g/ha (SETVI [15]; Setaria viridis, 504 h): 100%; pest or weed control at 80 g/ha (ALOMY [8]): 80%; pest or weed control at 20 g/ha (VERPE [16]): 90%; pest or weed control at 80 g/ha (ABUTH [9]): 100%; pest or weed control at 80 g/ha (SETVI [10]; dosage 80 g/ha): 90% |
| Cn1nnnc1NC(=O)c1ccc(Br)c(C(=O)NCC2CC2)c1Cl [Example 1-180] | 100% | 100% |  |  | 100% |  | 100% | 100% |  | 100% | 100% | 100% | 90% | 90% | 80% | 100% | 100% | 90% | 90% | 80% | Post-emergence action against PHBPU in % (PHBPU; dosage 5 g/ha): 90%; Post-emergence action against PHBPU in % (PHBPU; dosage 20 g/ha): 90%; Pre-emergence action against AVEFA in % (AVEFA): 80% |
| CCNC(=O)c1c(C(F)F)ccc(C(=O)Nc2nnc(C)o2)c1Br [Example 6-165] | 100% | 80% |  | 90% | 100% | 100% | 100% | 100% | 80% | 90% | 80% | 100% |  | 100% |  | 90% | 100% | 80% | 80% | 80% | Post-emergence action against ALOMY in % (ALOMY [17]): 80%; Post-emergence action against DIGSA (DIGSA [18]): 90%; Post-emergence action against ECHCG in % (ECHCG [4]; dosage 5 g/ha): 90%; Post-emergence action against SETVI in % (SETVI [15]): 80%; Pre-emergence action against SETVI in % (SETVI [10]; dosage 20 g/ha): 90% |

— US12655116B2, “Substituted isophthalic acid diamides” (Bayer Aktiengesellschaft, priority 2020, dated 2026)
